The values that follow come from US12593847B2, “Formulations” (SYNGENTA CROP PROTECTION AG, priority 2020, dated 2026).

Read-outs that look alike come from different tables or passages of the source.

The nature of series [1]: Example 9: storage stability of 43.3% w/w picarbutrazox formulation. Type of series: physicochemical. The note with it: Example 9 formulation, picarbutrazox only AI at 43.3% w/w, Initial pH 7.2. As to the method:
A standard formulation was prepared which contained picarbutrazox as the only Al at 43.3% w/w concentration. The initial pH was pH 7.2.

The nature of series [2]: Example 7: picarbutrazox and thiamethoxam stability relative to pH, 54° C. for 2 weeks. The conditions noted are these: for Change in picarbutrazox concentration after storage at 54° C. for 2 weeks: Example 7 formulation (0.42% w/w picarbutrazox); for Change in thiamethoxam concentration after storage at 54° C. for 2 weeks: Example 7 formulation (20.8% w/w thiamethoxam). Type of series: physicochemical. The text has this:
Two standard formulations containing the follow active ingredients were created. The standard formulations contained customary formulation components and were then pH adjusted via the addition of either Sodium Hydroxide (NaOH) or Phosphoric Acid (H3PO4) to obtain a range of pH's.

A short description of series [3]: Example 10: storage stability of mixtures of 36% w/w and 0.8% w/w PCBX formulations, 2 weeks at 54 C. Type of series: physicochemical. The conditions noted are these: for Actual Measured % w/w PCBX in the combined mixture: before storage. As to the method: A standard formulation was prepared which contained picarbutrazox at 36% w/w concentration. This was then mixed in differing ratios with a standard formulation which contained picarbutrazox at 0.8% w/w concentration. The mixtures were stored for 2 weeks at 54 C.

The nature of series [4]: Example 8: picarbutrazox and thiamethoxam stability relative to pH, 1 month at 50° C. Type of series: physicochemical. The conditions noted are these: for Change in picarbutrazox concentration after storage for 1 month at 50° C.: Example 8 formulation (0.42% w/w picarbutrazox); for Change in thiamethoxam concentration after storage for 1 month at 50° C.: Example 8 formulation (20.8% w/w thiamethoxam). From the text: Four standard formulations containing the follow active ingredients were created. The standard formulations contained customary formulation components and were then pH adjusted via the addition of either Sodium Hydroxide (NaOH) or Phosphoric Acid (H3PO4) to obtain a range of pH's.

Series [5] in a line: Example 2: storage stability of standard formulation (pH 6.05), one year at 20-25° C. Type of series: physicochemical. The conditions noted are these: Example 2 formulation; for Concentration at t = 0: pH 6.05, before storage; for % loss: pH 6.05, one year at 20-25° C.; for Concentration at t = 1 year and 20-25 ° C.: pH 6.05, stored one year at 20-25° C. As to the method:
Another standard formulation containing the follow active ingredients was created as follows:
The formulation was stored for one year at 20-25° C. The pH of 6.05 providing excellent chemical stability for picarbutrazox as well at the other active ingredients.

The conditions of series [6]: cited from earlier work; for time for degradation in water of at least 50%: pH 9.
For series [7] the following is noted: pH 7; cited from earlier work.
Setting [8] is: 0% of 36% w/w PCBX formulation + 100% of 0.8% w/w PCBX formulation.
The mark [9] stands for this setting: mixture 30% of 36% w/w PCBX formulation + 70% of 0.8% w/w PCBX formulation.
Setting [10] is: mixture 60% of 36% w/w PCBX formulation + 40% of 0.8% w/w PCBX formulation.
The mark [11] stands for this setting: mixture 90% of 36% w/w PCBX formulation + 10% of 0.8% w/w PCBX formulation.

`Cn1nnnc1/C(=N\OCc1cccc(NC(=O)OC(C)(C)C)n1)c1ccccc1` [picarbutrazox, 1,1-Dimethylethyl N-(6-((((Z)-((1-methyl-1H-tetrazol-5-yl)phenylmethylene)amino)oxy)methyl)-2-pyridinyl)carbamate]: the “Change in picarbutrazox concentration after storage for 1 month at 50° C.” value in series [1] is −1%; in series [4] (Initial pH 5.7), −16%; in series [4] (Initial pH 6.0) it was −16%; in series [4] (Initial pH 7.2) it was −13%; in series [4] (Initial pH 8.0), −5%. Besides, the “Change in picarbutrazox concentration after storage for 2 weeks at 54° C.” value in series [1] is recorded as −2%. In addition, the “Change in picarbutrazox concentration after storage at 54° C. for 2 weeks” value in series [2] (Initial pH 7.2) is −10%; in series [2] (Initial pH 8.0) it was −6%. For the same compound, the “Change in PCBX concentration after storage for 2 weeks at 54 C.” value in series [3] (setting [8]) is recorded as 11%; in series [3] (setting [9]) it was 0%; in series [3] (setting [10]), 0%; in series [3] (setting [11]), 0%. In addition, the “Actual Measured % w/w PCBX in the combined mixture” value is given as 0.85% w/w in series [3] (setting [8]), 11.4% w/w in series [3] (setting [9]), 21.8% w/w in series [3] (setting [10]) and 32.6% w/w in series [3] (setting [11]). Also, the “Concentration at t = 0” value in series [5] was determined as 0.365 % w/w. In series [5], the “% loss” value is 0%. For the same compound, the “Concentration at t = 1 year and 20-25 ° C.” value in series [5] was 0.367 % w/w.

With `N#Cc1c[nH]cc1-c1cccc2c1OC(F)(F)O2` [Fludioxonil], in series [5], the “Concentration at t = 0” value worked out at 0.955 % w/w; the “% loss” value is given as 1%; the “Concentration at t = 1 year and 20-25 ° C.” value stood at 0.944 % w/w.

Consider `CN1COCN(Cc2cnc(Cl)s2)/C1=N\[N+](=O)[O-]` [Thiamethoxam], for which the Hydrolysis result in series [6] (pH 1, 5, 7 (25° C.)) is given as “stable”. Moreover, the “Hydrolysis DT50” value in series [6] (pH 9, 25° C.) was 7.3 to 15.6 days. In addition, the “Change in thiamethoxam concentration after storage at 54° C. for 2 weeks” value in series [2] (Initial pH 7.2) is −1%; in series [2] (Initial pH 8.0), −3%. Besides, the “Change in thiamethoxam concentration after storage for 1 month at 50° C.” value in series [4] (Initial pH 5.7) is on record as −1%; in series [4] (Initial pH 6.0), −1%; in series [4] (Initial pH 7.2) it was −5%; in series [4] (Initial pH 8.0), −7%. In series [5], the “Concentration at t = 0” value is recorded as 19.5 % w/w. The “% loss” value in series [5] is recorded as 2%. Also, in series [5], the “Concentration at t = 1 year and 20-25 ° C.” value came to 19.1 % w/w.

As to `CNC(=O)c1cc(Cl)cc(C)c1NC(=O)c1cc(Br)nn1-c1ncccc1Cl` [chlorantraniliprole], the Hydrolysis entry in series [6] (pH 4-7 (25° C.)) is given as “stable”. For the same compound, in series [6] (pH 9, 25° C.), the “Hydrolysis DT50” value was 10 days. Further, the “time for degradation in water of at least 50%” value in series [6] was “less than 30 days”. Further, the “Aqueous photolysis DT50” value in series [7] is on record as “(25° C.). Aqueous photolysis DT50 0.37 d (pH 7)”.

As to `Cn1cc(C(=O)Nc2ccccc2C2CC2C2CC2)c(C(F)F)n1` (centres unmarked) [Sedaxane], in series [5], the “Concentration at t = 0” value is 0.974 % w/w; the “% loss” value is reported as 0%; the “Concentration at t = 1 year and 20-25 ° C.” value is on record as 0.970 % w/w.

In the case of `CNC(=O)c1cc(C#N)cc(C)c1NC(=O)c1cc(Br)nn1-c1ncccc1Cl` [cyantraniliprole], the “Hydrolysis DT50” value is 261 days in series [6] (pH 4, 20° C.); 61 days in series [6] (pH 7, 20° C.); 1.8 days in series [6] (pH 9, 20° C.). The “time for degradation in water of at least 50%” value in series [6] is “less than 30 days”.

On to `COCC(=O)N(c1c(C)cccc1C)[C@H](C)C(=O)OC` [Mefenoxam], for which, in series [5], the “Concentration at t = 0” value was 5.78 % w/w; the “% loss” value is on record as 0%; the “Concentration at t = 1 year and 20-25 ° C.” value is reported as 5.77 % w/w.
